Experimental data taken from ChEMBL document CHEMBL5338801, “Carbohydrate Strengthens the Immunotherapeutic Effect of Small-Molecule PD-L1 Inhibitors” (J Med Chem, 2023).
Active and inactive are the calls of the source. The rule behind the calls is not given here.

Legend:
Jurkat = experiment: Cytotoxicity against human Jurkat cells assessed as cell growth inhibition incubated for 48 hrs by MTT assay; type: functional, cell-based
[1] = target: Programmed cell death protein 1/Programmed cell death 1 ligand 1 (Homo sapiens, UniProt Q9NZQ7); experiment: Inhibition of PD-1/PD-L1 (unknown origin) interaction incubated for 15 mins by HTRF assay; type: protein-complex assay
Chain of Programmed cell death protein 1/Programmed cell death 1 ligand 1 (Q15116 whole entry): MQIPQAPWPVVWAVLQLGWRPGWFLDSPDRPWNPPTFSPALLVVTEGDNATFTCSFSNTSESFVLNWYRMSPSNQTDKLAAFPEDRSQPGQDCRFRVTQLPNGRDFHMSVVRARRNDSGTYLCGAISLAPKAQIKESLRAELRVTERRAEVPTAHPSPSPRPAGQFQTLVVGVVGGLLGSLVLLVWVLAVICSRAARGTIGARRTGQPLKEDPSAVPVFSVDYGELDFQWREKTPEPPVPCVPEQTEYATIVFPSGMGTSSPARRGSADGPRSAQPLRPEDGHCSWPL
Chain of Programmed cell death protein 1/Programmed cell death 1 ligand 1 (Q9NZQ7 whole entry): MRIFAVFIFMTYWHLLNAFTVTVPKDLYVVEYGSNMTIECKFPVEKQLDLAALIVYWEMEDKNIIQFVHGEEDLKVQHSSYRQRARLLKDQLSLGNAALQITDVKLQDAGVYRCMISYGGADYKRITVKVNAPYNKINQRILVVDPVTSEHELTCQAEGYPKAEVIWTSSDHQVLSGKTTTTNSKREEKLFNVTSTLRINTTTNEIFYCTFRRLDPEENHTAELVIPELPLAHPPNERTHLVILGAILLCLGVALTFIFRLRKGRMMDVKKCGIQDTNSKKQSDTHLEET

[2] = Partition coefficient, logD of compound in 1-octanol and phosphate buffer at pH 7.4 incubated for 1 hr under shaking condition by HPLC analysis; type: physicochemical; conditions: for logD at 1 h: 1-octanol/phosphate buffer, pH 7.4
[3] = Cytotoxicity against human Jurkat T cells assessed as cell viability at 10 uM incubated for 48 hrs by MTT assay; type: toxicity, cell-based; conditions: read-out: Activity
[4] = target: Programmed cell death protein 1/Programmed cell death 1 ligand 1 (Homo sapiens) (UniProt Q15116+Q9NZQ7); conditions: dose 300.0 nM, time 15.0 min
[5] = target: Programmed cell death 1 ligand 1 (Homo sapiens) (UniProt Q9NZQ7); experiment: Induction of human PD-L1 degradation expressed in MC38 cells at 0.1 to 10 uM cocultured for 72 hrs by Western blotting analysis; type: cell-based; conditions: dose 0.1-10 µM
Chain of Programmed cell death 1 ligand 1 (Homo sapiens) (Q9NZQ7 whole entry): as above

RKO [6] = experiment: Cytotoxicity against human RKO cells over expressing human PD-L1 at above 10 uM; type: toxicity, cell-based
MC-38 = experiment: Cytotoxicity against mouse MC38 cells assessed as cell death at 10 uM for 48 hrs by MTT assay; type: toxicity, cell-based; conditions: mc-38, 48 h
[7] = Toxicity in BALB/c mouse implanted with mouse CT26 cells assessed as weight loss at 25 mg/kg, ip qd administered for 10 days measured every 2 days for 12 days relative to control; type: organism-based; conditions: in vivo, 288 h, time 12 day
[8] = target: Programmed cell death 1 ligand 1 (Homo sapiens) (UniProt Q9NZQ7); experiment: Inhibition of human PD-L1 overexpressed in RKO cells assessed as reduction in membrane activity cocultured for 48 hrs by flow cytometry analysis; type: cell-based
[9] = target: Programmed cell death 1 ligand 1 (Homo sapiens) (UniProt Q9NZQ7); experiment: Induction of human PD-L1 degradation expressed in MC38 cells at 10 uM cocultured for 72 hrs by Western blotting analysis; type: cell-based
RKO [10] = experiment: Cytotoxicity against human RKO cells over expressing human PD-L1 at 50 uM; type: toxicity, cell-based

Compound	IC50 (Jurkat) [nM]	IC50 [1] [nM]	other results
COc1cc(OCc2cccc(-c3ccccc3)c2C)cc(OC)c1CNCc1cn([C@@H]2O[C@H](CO)[C@H](O)[C@H](O)[C@H]2O)nn1	27300	454	–
COc1cc(OCc2cccc(-c3ccccc3)c2C)cc(OC)c1CNCCO	5700	–	logD at 1 h [2]: 2.85; viability at 48 h, 10 µM [3]: 0%
COc1ccc(CNCCO)cc1OCc1cccc(-c2ccccc2)c1C	17900	–	inhibition [4]: 26.9%
COc1cc(OCc2cccc(-c3ccccc3)c2C)cc(OC)c1CNCc1cn([C@@H]2OC[C@@H](O)[C@H](O)[C@H]2O)nn1	27600	353	–
COc1ccc(CNCc2cn([C@@H]3O[C@H](CO)[C@@H](O)[C@H](O)[C@H]3O)nn2)cc1OCc1cccc(-c2ccccc2)c1C	> 100000	1760	–
COc1nc(OCc2cccc(-c3ccccc3)c2C)ccc1CNCc1cn([C@H]2O[C@@H](C)[C@@H](O)[C@@H](O)[C@@H]2O)nn1	24500	178	–
COc1cc(OCc2cccc(-c3ccccc3)c2C)cc(OC)c1CNCc1cn([C@@H]2O[C@H](CO)[C@@H](O)[C@H](O)[C@H]2O)nn1	> 100000	147	–
COc1ccc(CNCc2cn([C@@H]3O[C@H](CO)[C@H](O)[C@H](O)[C@H]3O)nn2)cc1OCc1cccc(-c2ccccc2)c1C	> 100000	612	–
COc1ccc(CNCc2cn([C@@H]3O[C@@H]4CO[C@@H](c5ccccc5)O[C@H]4[C@H](O)[C@H]3O)nn2)cc1OCc1cccc(-c2ccccc2)c1C	6200	2960	–
COc1nc(OCc2cccc(-c3ccccc3)c2C)ccc1CNCCO	2800	–	logD at 1 h [2]: 3.23; viability at 48 h, 10 µM [3]: 0%; inhibition [4]: 94.5%
COc1ccc(CNCc2cn([C@@H]3OC[C@H](O)[C@@H](O)[C@H]3O)nn2)cc1OCc1cccc(-c2ccccc2)c1C	53900	1480	–
COc1ccc(CNCc2cn([C@@H]3OC[C@@H](O)[C@@H](O)[C@H]3O)nn2)cc1OCc1cccc(-c2ccccc2)c1C	31300	2260	–
COc1cc(OCc2cccc(-c3ccccc3)c2C)cc(OC)c1CNCc1cn([C@@H]2OC[C@@H](O)[C@@H](O)[C@H]2O)nn1	14900	206	–
COc1cc(OCc2cccc(-c3ccccc3)c2C)cc(OC)c1CNCc1cn([C@H]2O[C@H](CO)[C@@H](O)[C@H](O)[C@@H]2O)nn1	50500	114	–
COc1nc(OCc2cccc(-c3ccccc3)c2C)ccc1CNCc1cn([C@@H]2O[C@H](CO)[C@@H](O)[C@H](O)[C@H]2O)nn1	> 100000	56.1	–
COc1cc(OCc2cccc(-c3ccccc3)c2C)cc(OC)c1CNCc1cn([C@@H]2O[C@H](CO)[C@@H](O)[C@H](O)[C@H]2NC(C)=O)nn1	> 100000	30	–
COc1ccc(CNCc2cn([C@H]3O[C@@H](C)[C@@H](O)[C@@H](O)[C@@H]3O)nn2)cc1OCc1cccc(-c2ccccc2)c1C	53100	1920	–
COc1nc(OCc2cccc(-c3ccccc3)c2C)ccc1CNCc1cn([C@@H]2O[C@@H]3CO[C@@H](c4ccccc4)O[C@H]3[C@H](O)[C@H]2O)nn1	8800	461	–
Cc1cc(OCc2cccc(-c3ccccc3)c2C)cc(C)c1CNCCO	4100	–	inhibition [4]: 62.8%
COc1ccc(CNCc2cn([C@H]3OC[C@@H](O)[C@H](O)[C@@H]3O)nn2)cc1OCc1cccc(-c2ccccc2)c1C	43500	503	–
COc1cc(OCc2cccc(-c3ccccc3)c2C)cc(OC)c1CNCCO[C@@H]1O[C@H](CO)[C@@H](O)[C@H](O)[C@H]1O	–	–	Activity [5]: inactive
CN(C)CCCN1c2ccccc2Sc2ccc(Cl)cc21 [CHLORPROMAZINE]	–	–	logD at 1 h [2]: 3.18
COc1nc(OCc2cccc(-c3ccccc3)c2C)ccc1CNCc1cn([C@@H]2OC[C@@H](O)[C@H](O)[C@H]2O)nn1	25500	110	–
COc1cc(OCc2cccc(-c3ccccc3)c2C)cc(OC)c1CNCc1cn([C@@H]2O[C@@H]3CO[C@@H](c4ccccc4)O[C@H]3[C@H](O)[C@H]2O)nn1	4500	1090	–

Compound	IC50 (Jurkat) [nM]	IC50 [1] [nM]	other results
COc1nc(OCc2cccc(-c3ccccc3)c2C)ccc1CNCc1cnnn1[C@H]1OC[C@@H](O)[C@H](O)[C@@H]1O	26700	118	–
CC(C)(C)NCC(O)COc1cccc2c1CC(O)C(O)C2 (stereo unspecified) [NADOLOL]	–	–	logD ([2]; octanol/water, pH 7.4, 1 h): -1.2
COc1ccc(CNCc2cn([C@@H]3O[C@H](CO)[C@@H](O)[C@H](O)[C@H]3NC(C)=O)nn2)cc1OCc1cccc(-c2ccccc2)c1C	> 100000	1090	–
COc1cc(OCc2cccc(-c3ccccc3)c2C)cc(OC)c1CN[C@H](C)CO	2800	–	logD at 1 h [2]: 3.25; Activity (RKO [6]): Toxic; Activity (MC-38): Toxic
COc1nc(OCc2cccc(-c3ccccc3)c2C)ccc1CNCc1cn([C@H]2O[C@H](CO)[C@@H](O)[C@H](O)[C@@H]2O)nn1	46000	164	–
COc1ccc(CNCc2cn([C@@H]3OC[C@@H](O)[C@H](O)[C@H]3O)nn2)cc1OCc1cccc(-c2ccccc2)c1C	47500	1780	–
COc1cc(OCc2cccc(-c3ccccc3)c2C)cc(OC)c1CNCc1cn([C@@H]2OC[C@H](O)[C@H](O)[C@H]2O)nn1	43400	507	–
Cc1c(COc2ccc(CNCCO)cc2F)cccc1-c1ccccc1	5400	–	inhibition [4]: 57.1%
CN(C)CCC=C1c2ccccc2CCc2ccccc21 [AMITRIPTYLINE]	–	–	logD at 1 h [2]: 3
COc1cc(OCc2cccc(-c3ccccc3)c2C)cc(OC)c1CNCc1cn([C@@H]2OC[C@H](O)[C@@H](O)[C@H]2O)nn1	19800	321	–
COc1nc(OCc2cccc(-c3ccccc3)c2C)ccc1CNCCNC(C)=O	2600	–	logD at 1 h [2]: 3.33; Activity (RKO [6]): Toxic; Activity (MC-38): Toxic; Activity [7]: Toxic
COc1cc(OCc2cccc(-c3ccccc3)c2C)cc(OC)c1CNCc1cn([C@@H]2O[C@H](CO)[C@@H](O)[C@H](OC)[C@H]2O)nn1	44000	355	–
COc1nc(OCc2cccc(-c3ccccc3)c2C)ccc1CNCc1cn([C@@H]2OC[C@@H](O)[C@@H](O)[C@H]2O)nn1	16900	98.9	–
COc1cc(OCc2cccc(-c3ccccc3)c2C)cc(OC)c1CNCc1cn([C@H]2O[C@@H](C)[C@@H](O)[C@@H](O)[C@@H]2O)nn1	30800	161	–
COc1ccc(CNCc2cn([C@@H]3OC[C@H](O)[C@H](O)[C@H]3O)nn2)cc1OCc1cccc(-c2ccccc2)c1C	49200	1240	–
COc1nc(OCc2cccc(-c3ccccc3)c2C)ccc1CNCc1cn([C@@H]2O[C@H](CO)[C@@H](O)[C@H](OC)[C@H]2O)nn1	34300	305	–
Cc1c(COc2ccc(Cl)c(CNCCO)c2)cccc1-c1ccccc1	12400	–	inhibition [4]: 36.7%
COc1cc(OCc2cccc(-c3ccccc3)c2C)cc(OC)c1CNCc1cnnn1[C@H]1OC[C@@H](O)[C@H](O)[C@@H]1O	24900	169	–
COc1ccc(CNCc2cn([C@H]3O[C@H](CO)[C@@H](O)[C@H](O)[C@@H]3O)nn2)cc1OCc1cccc(-c2ccccc2)c1C	73900	1150	–
COc1nc(OCc2cccc(-c3ccccc3)c2C)ccc1CNCc1cn([C@@H]2O[C@H](CO)[C@@H](O)[C@H](O)[C@H]2NC(C)=O)nn1	> 100000	23.7	–
COc1nc(OCc2cccc(-c3ccccc3)c2C)ccc1CNCc1cn([C@@H]2O[C@H](CO)[C@H](O)[C@H](O)[C@H]2O)nn1	> 100000	174	–
COc1nc(OCc2cccc(-c3ccccc3)c2C)ccc1CNCCO[C@H]1O[C@H](CO)[C@@H](O)[C@H](O)[C@@H]1O	–	–	inhibition [8]: Active; Activity [9]: Active; Activity (RKO [10]): Non-Toxic
Cc1c(COc2cc(CNCCO)ccc2Cl)cccc1-c1ccccc1	7800	–	inhibition [4]: 51.4%
COc1ccc(CNCc2cn([C@@H]3O[C@H](CO)[C@@H](O)[C@H](OC)[C@H]3O)nn2)cc1OCc1cccc(-c2ccccc2)c1C	50000	384	–
